Source: patent publication CN106344577A, “Fistulains A在抗幽门螺杆菌药物中的应用” (Quanjiao Xianqi Pharmaceutical Technology Co Ltd, priority 2016, dated 2017)
≈ marks a conversion by molar mass, not a printed value.

System: Helicobacter pylori (幽门螺杆菌)
Assay: Agar dilution method, MIC against H. pylori
Assay type: cell-based
Details: same value for each of 6 strains: 5 random clinical strains (Hp001, Hp003, Hp004, Hp018, Hp036) and standard strain ATCC43504, complete growth inhibition, 37℃, 72 h, microaerobic, read-out: minimum inhibitory concentration (MIC)

MIC: 3.3 µg/mL (≈ 9.44 µM)
SMILES: CC1(C)S[C@@H]2[C@H](NC(=O)[C@H](N)c3ccccc3)C(=O)N2[C@H]1C(=O)O [氨苄西林]
